According to ChEMBL document CHEMBL1136703, “Leporin B: a novel hexokinase II gene inducing agent from an unidentified fungus” (Bioorg Med Chem Lett, 2003):

Tested on: L6
Assay: Inhibitory concentration against induction of Hexokinase II-luci signal in the reporter cell line
Format: functional, cell-based
Conditions: Rattus norvegicus

C/C=C/C1Oc2c(-c3ccccc3)cn(O)c(=O)c2C2C(C)CCCC12 (stereo unspecified)
IC50: 10 µM
